We go through seven compounds from patent US20150342194A1, “NON-PHYTOTOXIC COMPOSITE POLYMER FILM BARRIER AS A REPELLENT FOR CONTROLLING INFECTION” (priority 2014, published 2015).

The subject of data set [1] is Asian Citrus Psyllid (ACP, Diaphorina citri). The conditions noted are these: field trials, literature [7-9]; cited from earlier work.
The test system is the same in data set [2]. The conditions noted are these: chemical repellants, literature [11-13]; cited from earlier work.
The subject of another data set is Vinca sp. Nature of the data set: Phytotoxicity (plant tissue injury) testing on Vinca sp. The format is in vivo. Set-up: key: −: No plant tissue damage; +: Minimal; ++: moderate; +++: severe plant tissue damage. The procedure:
FIGS. 2A to 2C illustrate phytotoxicity (plant tissue injury) results. FIG. 2A illustrates untreated, FIG. 2B illustrates OSCF nanoparticle, and FIG. 2C illustrates OSCF nanogel film materials, sprayed on Vinca. sp. Under green-house conditions, approximately 5 mL of synthesized formula was sprayed on plants at 7:30 AM on the test day. After 72 hrs, all treatments were non-phytotoxic (−) to plants.
FIG. 1 illustrates digital photographs of some representative citrus leaf surfaces before and after rigorous spray washing with water (simulating over 6 inches of rainfall). Phytotoxicity studies were carried out using Vinca sp. (an ornamental plant, highly susceptible to phytotoxicity; purchased from Home Depot).
(§1) Tables 2 and 3, Example 2, illustrate phytotoxicity testing of embodiments of the present disclosure.

A further data set deals with Citrus (Persian Lime). The data set can be described thus: Phytotoxicity testing on Citrus (Persian Lime). The format is in vivo. Set-up: key: −: No plant tissue damage; +: Minimal; ++: moderate; +++: severe plant tissue damage.
From the text: as §1

The next data set relates to Tomato sp. The data set can be described thus: Phytotoxicity testing on Tomato sp. The format is in vivo. Set-up: key: −: No plant tissue damage; +: Minimal; ++: moderate; +++: severe plant tissue damage.
From the text: as §1

As to `CCOP(=S)(OCC)Oc1nc(Cl)c(Cl)cc1Cl` [chlorpyrifos], the “Controlling ACP populations” value in data set [1] is recorded as “effective in controlling ACP populations”.
Turning to `O=[N+]([O-])NC1=NCCN1Cc1ccc(Cl)nc1` [imidacloprid], in data set [1], the “Controlling ACP populations” value is recorded as “effective in controlling ACP populations”.
For the compound `CN/C(=N\[N+](=O)[O-])NCc1cnc(Cl)s1` [clothianidin], the “Controlling ACP populations” value in data set [1] is on record as “effective in controlling ACP populations”.
As for `CSSC` [dimethyldisulfide (DMDS), dimethyldisulfide], the ACP repellant properties entry in data set [2] is given as “moderate ACP repellant properties”.
Regarding `CC1(C)C(C(=O)OC(C#N)c2cccc(Oc3ccccc3)c2)C1(C)C` (stereo not drawn) [fenpropathrin], in data set [1], the “Controlling ACP populations” value is on record as “effective in controlling ACP populations”.
Regarding `O=S(=O)([O-])[O-].[Cu+2]` [CuSO4], the “Phytotoxicity, plant tissue damage” value with Vinca sp (24 hr, Table 2) was “+”; in the data set with Vinca sp (24 hr, Table 3) it was “+”; with Vinca sp (48 hr, Table 2) it was “++”; with Vinca sp (48 hr, Table 3) it was “++”; in the data set on Vinca sp (72 hr, Table 2), “+++”; with Vinca sp (72 hr, Table 3), “+++”. Moreover, the “Phytotoxicity, plant tissue damage” value is “+” in the data set with Citrus (Persian Lime) (24 hr); “++” in the data set on Citrus (Persian Lime) (48 hr); “+++” in the data set on Citrus (Persian Lime) (72 hr); “+” in the data set with Tomato sp (24 hr); “++” with Tomato sp (48 hr); “+++” with Tomato sp (72 hr).
As to `CN1COCN(Cc2cnc(Cl)s2)/C1=N\[N+](=O)[O-]` [thiamethoxam], in data set [1], the “Controlling ACP populations” value was “effective in controlling ACP populations”.
